Row | SMILES | melting point
1 | CNC(=O)Cn1c(-c2ccc(Cl)cc2)nc2ccc(Cl)nc21 | > 250 °C
2 | CC(C)(C)OC(=O)N1CCn2c(C#N)c(-c3cccc(F)c3)c(C(=O)O)c2C1 | > 210 °C
3 | CCOC(=O)c1cc2cc(-c3ccccc3)ccc2nn1 | 160 to 162 °C
4 | O=C1[C@H](CC[C@H](O)c2ccc(F)cc2)[C@@H](c2ccc(Br)cc2OCc2ccccc2)N1c1ccccc1 | 114 °C
5 | COC(=O)Cn1nnc(NC(=O)C(c2ccccc2)c2ccccc2)n1 | 168 to 169 °C
6 | Oc1ccc2c(c1)CCC(CCN1CCCCC1)C2 (configuration not stated) | 154 to 157 °C
7 | CCOCNC(=O)c1cc(OC)cc(Oc2cccc(C(F)(F)F)c2)n1 | 44 to 47 °C
8 | CC(C)(C)OC(=O)C1CCCN(C(=O)OCc2ccccc2)N1C(=O)C(Br)CCBr (configuration not stated) | 81 to 82 °C
9 | OC1(C(F)(F)F)CC(c2ccc(Cl)cc2)=NN1Cc1cccnc1 (configuration not stated) | 158 to 160 °C
10 | CC1(C)OC(c2ccc(S(N)(=O)=O)cc2)=C(c2cc3ccccc3s2)C1=O | 120 to 121 °C
11 | CN1CCN(c2ccc(CCCC(=O)N3CCC(c4ccc(Cl)cc4)CC3)cc2)CC1 | 119 to 120 °C
12 | O=C1N[C@@H](CC2CCCCC2)[C@H]1O | 147 to 148 °C
13 | CC(C)(C)c1cc(-c2nc(CS(C)(=O)=O)no2)cc(C(C)(C)C)c1O | 153 to 155 °C
14 | CC(C)c1cccc(C(C)C)c1NC(=O)CNC(c1ccccc1)c1ccc(C(=O)O)cc1 (configuration not stated) | 245 to 246 °C
15 | Cn1c(OC2CCOC2)nn(C(=O)NS(=O)(=O)c2ccccc2Br)c1=O (configuration not stated) | 191 °C
16 | FC(F)(F)Oc1ccc(C2NCCc3c2[nH]c2ccccc32)cc1 (configuration not stated) | 68 to 69 °C
17 | C=CCSc1nc(=O)n(C(=O)NC)s1 | 110 °C
18 | CCOC(=O)c1ccc(N2CCC(NC[C@H](O)COc3ccc(O)c(S(C)(=O)=O)c3)CC2)cc1 | 83 to 85 °C
19 | CCOC(=O)c1ccc2n1Cc1ccccc1N(C(=O)c1ccc(NC(=O)c3ccc(Cl)cc3Cl)c(C)c1)C2 | 174 to 184 °C
20 | CCCc1c(OCCCOc2ccc(C#N)cc2Cl)ccc(C(C)=O)c1O | 96 to 97 °C
21 | CCON=C(CC)C1=C(O)CC(c2c(C)c(C)c3c(c2Cl)CC(C)(CC)C3)CC1=O (configuration not stated) | 93 to 94 °C
22 | Cc1cc2c(-c3cccc(Br)c3)c(CC(=O)Nc3ccc(F)cc3C(F)(F)F)c(=O)oc2cc1Cl | 222 to 223 °C
23 | CC(C)Cc1ccc(-c2cc(C(=O)O)cc(-c3ccc(Cl)cc3)n2)cc1 | 220 to 221 °C
24 | CCc1ccc2c(c1)C=Cc1sc(C)nc1C2c1cn(C)c(=O)[nH]c1=S (configuration not stated) | 265 °C
25 | O=c1oc2ccccc2c(O)c1CCCCC1CCCCC1 | 160 to 161 °C

Row | SMILES | melting point
26 | C=CCOC1(C(F)(F)F)CN(C2CC2)C(=O)Nc2ccc(Cl)cc21 (configuration not stated) | 120 to 121 °C
27 | CCCCc1c(C(=O)OCC)cc(Oc2nnnn2-c2ccccc2)c2c(OC)cccc12 | 144 to 146 °C
28 | CC(C)(C)OC(=O)Nc1cccc(OC2CCN(c3ccncc3)CC2)c1 | 165 to 166 °C
29 | COc1ccc(C2(O)CCCCC2=O)c(OC)c1OC (configuration not stated) | 88 to 91 °C
30 | Cc1ccccc1NC(=O)Nc1ccc(N)cc1 | > 300 °C
31 | C=CCN(CC)C(=O)n1cnc(S(=O)(=O)CC)n1 | 39 to 41.5 °C
32 | COc1ccccc1-n1cnc2c(C(N)=O)nc(Nc3cccc(O)c3)nc21 | 155 to 157 °C
33 | Nc1nccc(C=Cc2ccc([N+](=O)[O-])cc2)n1 | 214 to 216 °C
34 | COc1ccc2cc(-c3ncno3)ccc2n1 | 150 to 152 °C
35 | CCOC(=O)N1CCSC1C1=C(C)NC(=O)CS1 (configuration not stated) | 146 to 147 °C
36 | O=c1ccn(-c2cccc(C(F)(F)F)c2)nc1-c1ccnn1-c1cccc(F)c1 | 104 to 105 °C
37 | Cc1cc(-c2nc3cc(F)cc(F)c3c(=O)[nH]2)cc(C)c1OCCN1CCCC1 | 234 to 235 °C
38 | COc1ccc(C(=O)c2ccc(-c3nc4ccccc4o3)cc2)c(O)c1 | 177 to 179 °C
39 | Oc1ccc2c(c1)C[C@@H](NC[C@H](O)c1ccc(OCc3ccccc3)cc1)CC2 | 132 to 134 °C
40 | CCC1(CC)c2ccccc2C(CC)(CC)N1OC(COC(C)(C)C)c1ccccc1 (configuration not stated) | 85 to 86 °C
41 | CCOC(=O)CCCC(=O)c1ccc(O)c(CCC(=O)OCC)c1 | 68 to 69 °C
42 | CC(NC(=O)c1cc(Cl)ccc1NC(=O)c1cc(Br)nn1-c1ncccc1Cl)C1CC1 (configuration not stated) | 231 to 233 °C
43 | CCOC(=O)c1cc2cc(N(CC)C(C)=O)ccc2[nH]1 | 149 to 150 °C
44 | CCOC(=O)C1C(c2ccco2)C(C(=O)OCC)C(O)(C(F)(F)F)NC1(O)C(F)(F)F (configuration not stated) | 129 to 131 °C
45 | O=C1NCCN(c2ccc(Cc3ccc(Cl)cc3)c(Cl)c2)N1 | 157 to 158 °C
46 | NCCc1ccc(OCc2ccccc2)cc1 | 58.7 to 59.6 °C
47 | C=CCCC(=O)N1CCc2nnc(NN)cc2C1 | 132 to 134 °C
48 | CCOC(=O)c1cc(NCc2ccccc2)c(N2CCOCC2)c(S(N)(=O)=O)c1 | 185 to 186 °C
49 | COCNc1c(C#N)cnn1-c1ccc(Cl)c(Cl)c1Cl | 129 to 130 °C
50 | O=S(=O)(Cc1ccc(C(O)c2ccc(Cl)cc2)cc1)C(F)(F)F (configuration not stated) | 113 to 115 °C

Row | SMILES | melting point
51 | CCC1CC2C3CCC4=CC(=O)CCC4=C3C=CC2(CC)C1O (configuration not stated) | 184 to 187 °C
52 | CS(=O)(=O)c1ccc(-n2nc(CCCO)cc2-c2ccccc2)cc1 | 120 to 123 °C
53 | CCCOc1cc2c(cc1-c1cc(-c3ccc(C(=O)O)cc3)ccc1-c1ccccc1)C(C)(C)CCC2(C)C | 234 °C
54 | COC(=O)c1ccc(CN2CCN(CC(C)O)CC2)cc1 (configuration not stated) | 63 to 64 °C
55 | OCC(O)COc1cc(-c2cccc(Cl)c2)on1 (configuration not stated) | 92 to 93 °C
56 | CCCc1c(O)ccc(C(=O)c2ccccc2O)c1O | 110 to 113 °C
57 | O=Cc1ccc(-c2ccc(-c3ccc(C=O)o3)cc2)o1 | 233 to 234 °C
58 | COC(=O)c1cc(OC)c(OCc2ccccc2)cc1[N+](=O)[O-] | 104 to 105 °C
59 | Nc1cccc(-c2ccc(CCN3CCN(C(=O)c4ccco4)CC3)cc2)n1 | 152 to 154 °C
60 | Cc1ncc2n1-c1ccc(Cl)cc1N(c1ccccc1)C(=O)C2 | 276 to 278 °C
61 | Fc1ccc(-c2nc(C(F)(F)F)nc(Cl)c2-c2ccccc2)cc1 | 67 to 68 °C
62 | COc1ccc(-n2nc(C)cc2NC2=NCCN2C(C)=O)cc1 | 129 to 131 °C
63 | CC(O)c1cc2c(s1)S(=O)(=O)CCc1cc(=O)n(-c3ccc(Cl)cc3)nc1-2 (configuration not stated) | 233 to 235 °C
64 | C=CCN(CC=C)Cc1noc(-c2ncn3c2[C@@H]2CCN2C(=O)c2c-3ccc(F)c2Cl)n1 | 127 °C
65 | CC(C)Oc1cccc(-n2c(NC(=O)Nc3ccc(Br)cc3)nc3ccccc3c2=O)c1 | 230 to 233 °C
66 | Cc1ccc(-c2csc(NC(=O)c3nnn[nH]3)n2)cc1 | 250 to 253 °C
67 | CCc1nnc(C2=C(OC(=O)c3ccccc3)c3ccccc3S(=O)(=O)N2C)o1 | 191 to 192 °C
68 | CCOC(=O)c1cc(=O)c2c(CC)cc(Cl)cc2[nH]1 | 182 to 183 °C
69 | N#Cc1ccc2c(c1)C(C(=O)O)c1ccccc1CO2 (configuration not stated) | 215 to 217 °C
70 | CC1(CNC(=O)OC(C)(C)C)CN(c2cccc(Cl)n2)C1 | 108 to 111 °C
71 | CCOC(=O)C1=C(COCc2nnc(N)s2)NC(C)=C(C(=O)OC)C1c1cccc(Cl)c1Cl (configuration not stated) | 194 °C
72 | O=C(Nc1nccs1)c1ccc(-c2ccc3nnn(Cc4ccc5ncccc5c4)c3n2)cc1F | 204 to 206 °C
73 | CSc1ccc(-c2nc3[nH]nc(N)c3c(=O)n2-c2ccc(C)c(C)c2)cc1 | 263 to 266 °C
74 | COC(=O)C1=C(C)NC(c2cnc(Cl)s2)=NC1c1ccc(F)cc1Cl (configuration not stated) | > 230 °C
75 | CCCCCCCCCc1nnc(C2=C(OC(C)=O)c3ccccc3S(=O)(=O)N2C)o1 | 118 to 119 °C

Row | SMILES | melting point
76 | Nc1nc(Cl)cc(Oc2ccc3c(C(=O)Nc4cccc(C(F)(F)F)c4)cccc3c2)n1 | 234 to 236 °C
77 | Cc1ccc(S(=O)(=O)OCCc2cccc3[nH]cc(S(=O)(=O)c4ccccc4)c23)cc1 | 58 to 60 °C
78 | Cc1nc(N2CCN(Cc3ccc(C(F)(F)F)cc3)C2=O)sc1C(=O)O | 195 to 197 °C
79 | FC(F)(F)c1nnnn1-c1ccc(C2=NOC(c3cc(Cl)cc(Cl)c3)(C(F)(F)F)C2)cc1 (configuration not stated) | 147 to 151 °C
80 | Cc1cc2c(c(O)c1O)C(=O)c1c(O)cccc1C2=O | 239 to 240 °C
81 | CCOC(=O)C(=CC=C(O)C(=O)O)Sc1ccc2ccccc2c1 | 182 °C
82 | CS(=O)(=O)NS(=O)(=O)c1cccc(NC(=O)NC2N=C(c3ccccc3F)c3ccccc3N(CC(=O)N3CC4CCC(CC4)C3)C2=O)c1 (racemic) | > 250 °C
83 | CCOC(=O)c1c(Nc2ccncc2)c2ccc(Cl)cc2n1C | 154 to 155 °C
84 | CCNC(=S)NC1=Nc2ccc(OC(F)(F)F)cc2SC1 | 199 to 201 °C
85 | O=Cc1ccc(NCc2ccc(F)cc2)cn1 | 167 to 169 °C
86 | Nc1ccc(/C=C/c2ccccc2)nc1 | 159 to 160 °C
87 | CC(C)(C)C(NC(=O)c1cccc(F)c1)Nc1c(Nc2cccnc2)c(=O)c1=O (configuration not stated) | 231 to 232 °C
88 | O=[N+]([O-])c1ccccc1Sc1ccncc1 | 119 to 122 °C
89 | CNS(=O)(=O)N=C(NC(=O)OC)C(C)C | 194 to 199 °C
90 | CCOC(=O)CC(=O)Nc1ccc(Cl)c(Cl)c1 | 74 to 75 °C
91 | CCn1c(C)c(C(=O)c2ccc([N+](=O)[O-])cc2C(=O)O)c2ccccc21 | 203 to 204 °C
92 | O=C(O)C1=Cc2cc(F)c(N3CCC4(C3)OCCCO4)nc2N(c2ccc(F)cc2F)C1 | 145 to 146 °C
93 | Cc1oc(-c2ccccc2)nc1COc1ccc(COc2ncccc2C#N)cn1 | 117 to 118 °C
94 | OC(CN1CCN(Cc2ccc(F)cc2)CC1)Cn1c2ccccc2c2cc(-c3ccccc3)ccc21 (configuration not stated) | 188 °C
95 | O=C(NN1CCCCC1)c1cc(Oc2c(F)cc(C(F)(F)F)cc2Cl)ccc1[N+](=O)[O-] | 65 to 68 °C
96 | Cc1cc(CNC(=O)c2cc(-c3ccc(C(C)(C)C)cc3)nn2CC(=O)c2ccccc2)ccc1OC(C)(C)C(=O)O | 116 °C
97 | CCCCn1c(=O)n(CCCCC(C)=O)c(=O)c2c1ncn2CC(C)=O | 87 °C

Source: a melting point compilation (Tetko et al.; mined from patent text by program, amines drawn as free bases though some values may be those of a salt)
